Test results as given in patent publication US7803792B2, “Quaternary ammonium compounds” (Asahi Kasei Pharma Corporation, priority 2002, dated 2010).

How the values were obtained:
[1] = system: Cholic acid-loaded rat model; experiment: Bile acid-decreasing effect in portal vein of rats loaded with cholic acid (Test Example 2); format: in vivo; settings: 0.1 mg/kg oral with cholic acid 200 mg/kg; portal vein blood after 2 hours; HCO-60 0.1%
Summary of the method: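 SD (IGS) rats aged 7 to 9 weeks were fasted from the day before testing, then given cholic acid (200 mg/kg) together with the test compound by forced oral dosing. Portal vein blood was drawn 2 hours later, and total serum bile acid was measured with a commercial kit (n=6). The percent decrease was calculated relative to a cholic acid-only control group set at 100%.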

[2] = system: steatohepatitis model rats; experiment: Steatohepatitis model, choline-deficient diet (Test Example 15); format: in vivo, rat; settings: 3 mg/kg oral once a day for 2 weeks; n = 4; average ± standard error
Text: In this test example, the steatohepatitis model was examined referring to the method of Okan A., et al. (Dig Dis Sci 47:2389-2397, 2002).
That is, 7 weeks old Wistar rats were fed with a choline-deficient diet (manufactured by Oriental Yeast Co., Ltd.) for 2 weeks to prepare a steatohepatitis model. A suspension of a test compound in an aqueous solution of 0.5% methyl cellulose (manufactured by WAKO PURE CHEMICAL […], LTD.) and an aqueous solution of 0.5% methyl cellulose (manufactured by WAKO PURE CHEMICAL […], LTD.) as a control were orally administered once a day for consecutive 2 weeks. On the day next to the last day of administration, a blood sample was taken from the abdominal aorta and AST (GOT) and ALT (GPT) in the blood were measured by using measuring kits (GOTII-HA TEST WAKO and GPTII-HA TEST WAKO, respectively, the both were manufactured by WAKO PURE CHEMICAL […], LTD.) on an auto analyzer (NITTECH ANALYZER SUPER Z818).

Caco 2 cells = experiment: Toxicity with respect to alimentary canal: cytotoxicity to Caco 2, LDH activity (Test Example 12); format: cell-based, human; settings: LDH activity after 2 hours, relative to cytolytic agent = 100%
Summary of the method: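 Human Caco 2 intestinal cells, cultured 48 hours after seeding at 10,000 cells/well, received test compounds diluted in medium. LDH released into the medium after 2 hours was measured and expressed relative to cytolytic-agent-lysed cells (100%) as cytotoxicity.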

human IBAT = biological target: T1, human IBAT (Homo sapiens, UniProt Q12908); experiment: In vitro assay of temporarily expressed human IBAT transporter using Cos 7 cells (Test Example 8); format: cell-based; settings: Cos 7 cells temporarily expressing human IBAT; [3H] taurocholate 8 μM, 37° C., 60 minutes
T1 construct: expressed in transfected cells; host or cells: Cos 7
T1 sequence (Q12908 1-348): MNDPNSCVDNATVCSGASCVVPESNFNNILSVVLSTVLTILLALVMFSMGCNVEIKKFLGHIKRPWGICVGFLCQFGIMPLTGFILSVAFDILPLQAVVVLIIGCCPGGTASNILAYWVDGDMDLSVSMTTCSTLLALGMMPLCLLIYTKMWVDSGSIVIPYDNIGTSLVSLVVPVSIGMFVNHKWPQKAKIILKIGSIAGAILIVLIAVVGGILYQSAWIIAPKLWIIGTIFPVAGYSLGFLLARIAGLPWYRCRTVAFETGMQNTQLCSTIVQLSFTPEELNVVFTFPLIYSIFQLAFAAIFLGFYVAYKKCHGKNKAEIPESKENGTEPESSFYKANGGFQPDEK
Summary of the method: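 Cos 7 cells transiently transfected with human or rat IBAT cDNA, assayed one day later in Hank's buffer with 25 mM glucose, 10 mM HEPES (pH 7.4) plus compound. Uptake of 8 μM [^3H]taurocholate over 60 min at 37 °C, stopped with 1 mM taurocholate washes; lysate radioactivity by scintillation counting.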

| Structure (SMILES) | Rate of decrease (%) of bile acid [1] [%] | ALT [2] [IU/L] | AST [2] [IU/L] | Toxicity (%) to Caco 2 (Caco 2 cells; 3 μM) [%] | Toxicity (%) to Caco 2 (Caco 2 cells; 10 μM) [%] | Toxicity (%) to Caco 2 (Caco 2 cells; 30 μM) [%] | IC50 (human IBAT) [nM] |
| --- | --- | --- | --- | --- | --- | --- | --- |
| CCCCC1(CCCC)CS(=O)(=O)c2ccc(N(C)C)cc2C(c2cccc(NC(=S)Nc3ccc(C[n+]4ccc(C(C)(C)C)cc4)cc3)c2)N1.[Br-] (stereo not drawn) [Example 3713] | 32 | 118 ± 36 | 77 ± 37 | <1 | <1 | <1 | 37 |
| CCCCC1(CCCC)CS(=O)(=O)c2ccc(N(C)C)cc2C(c2cccc(NC(=S)Nc3ccc(C[N+]4(Cc5ccccc5)CCC(O)CC4)cc3)c2)N1.[Br-] (stereo not drawn) [Example 3605] | 24 | 121 ± 36 | 80 ± 34 | <1 | <1 | <1 | 39 |
| C#CC[N+](C)(Cc1ccccc1)Cc1ccc(NC(=S)Nc2cccc(C3NC(CCCC)(CCCC)CS(=O)(=O)c4ccc(N(C)C)cc43)c2)cc1 (stereo not drawn) [Example 3448] | 25 | 143 ± 79 | 134 ± 23 | <1 | <1 | <1 | 37 |
| CCCCC1(CCCC)CS(=O)(=O)c2ccc(N(C)C)cc2C(c2cccc(NC(=S)Nc3ccc(C[N+]45CCC(c6ccccc6)(CC4)CC5)cc3)c2)N1.[Br-] (stereo not drawn) [Example 3696] | 13 | 145 ± 34 | 98 ± 23 | <1 | <1 | <1 | 39 |
| CCCCC1(CCCC)CS(=O)(=O)c2ccc(N(C)C)cc2C(c2cccc(NC(=S)Nc3ccc(C[N+](C)(C)Cc4ccccc4)cc3)c2)N1.[Br-] (stereo not drawn) [Example 3440] | 26 | 167 ± 93 | 125 ± 34 | <1 | <1 | <1 | 37 |
| CCCCC1(CCCC)CS(=O)(=O)c2ccc(N(C)C)cc2C(c2cccc(NC(=S)CCCCC[N+]34CCC(CC3)CC4)c2)N1.[Br-] (stereo not drawn) [Example 1, 1-{5-[3-(3,3-Dibutyl-7-dimethylamino-1,1-dioxo-2,3,4,5-tetrahydro-1,4-benzothiazepin-5-yl)phenylthiocarbamoyl]pentyl}-1-azoniabicyclo[2.2.2]octane bromide] |  |  |  |  |  |  | 25 |
| CCCCC1(CCCC)CS(=O)(=O)c2ccc(N(C)C)cc2C(c2cccc(NC(=S)Nc3ccc(C[n+]4cccc(CCCO)c4)cc3)c2)N1.[Br-] (stereo not drawn) [Example 3747] | 40 | 102 ± 50 | 63 ± 86 | <1 | <1 | <1 | 45 |
| CCCCC1(CCCC)CS(=O)(=O)c2ccc(N(C)C)cc2C(c2cccc(NC(=S)Nc3ccc(C[n+]4ccccc4CCC)cc3)c2)N1.[Br-] (stereo not drawn) [Example 5408] | 35 | 149 ± 38 | 103 ± 45 | <1 | <1 | <1 | 32 |
| CCCCC1(CCCC)CS(=O)(=O)c2ccc(N(C)C)cc2C(c2cccc(NC(=S)Nc3ccc(C[n+]4cccc(CCC(=O)OC)c4)cc3)c2)N1.[Br-] (stereo not drawn) [Example 3752] | 42 | 88 ± 45 | 69 ± 98 | <1 | <1 | <1 | 41 |
